Measurements taken from patent US8211929B2, “Pyrimidine derivatives as kinase modulators and method of use” (Exelixis, Inc., priority 2004, dated 2012).

Legend:
IGF 3P = target: T1, IGF 3P (Homo sapiens, UniProt P08069); test: IGF1R kinase assay (LCCA), IGF 3P; type: biochemical; conditions: IGF1R kinase LCCA assay
T1 construct: human IGF1R kinase domain residues M954-C1367; made in house; host or cells: baculovirus expression (insect cells)
Method in brief: (§1)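 Baculovirus-expressed human IGF1R kinase domain (M954-C1367), 4 nM, with 3 μM ATP and 4 μM poly EY in Tris-HCl pH 7.5 buffer containing MgCl2 and MnCl2, 2 h at ambient temperature. Remaining ATP read by luciferase chemiluminescence; IC50 from 10-point dose-response fitted to a four-parameter equation.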

[1] = target: T2, (Homo sapiens, UniProt P08069); test: IGF1R kinase assay (LCCA), IGF 0P; type: biochemical; conditions: IGF1R kinase LCCA assay
T2 construct: human IGF1R kinase domain residues M954-C1367; made in house; host or cells: baculovirus expression (insect cells)
T2 sequence (P08069 954-1367): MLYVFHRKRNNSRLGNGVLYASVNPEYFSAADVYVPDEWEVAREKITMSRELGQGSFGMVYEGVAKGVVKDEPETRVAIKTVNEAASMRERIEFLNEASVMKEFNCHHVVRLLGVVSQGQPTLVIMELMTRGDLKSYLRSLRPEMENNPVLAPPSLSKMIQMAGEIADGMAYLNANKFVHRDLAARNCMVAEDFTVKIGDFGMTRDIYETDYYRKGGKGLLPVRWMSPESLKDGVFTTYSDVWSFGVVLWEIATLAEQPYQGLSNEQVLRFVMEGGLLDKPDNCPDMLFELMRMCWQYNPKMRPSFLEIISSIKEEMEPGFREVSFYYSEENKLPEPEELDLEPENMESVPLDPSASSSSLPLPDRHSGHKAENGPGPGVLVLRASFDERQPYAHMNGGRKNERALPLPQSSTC
Method in brief: as §1

T1 sequence (P08069 954-1367): as above

Compound | IC50 (IGF 3P) [nM] | IC50 [1] [nM] | IC50 (IGF 3P; IGF 3P) [nM] | IC50 ([1]; IGF 0P) [nM]
Brc1cnc(Nc2ccccc2N2CCCCC2)nc1Nc1cc(C2CC2)[nH]n1 [Example 334] | > 5000 | > 5000 | – | –
O=C(c1ccccc1)c1ccccc1Nc1ncc(Br)c(Nc2cc(C3CC3)n[nH]2)n1 [Example 335] | > 5000 | > 5000 | – | –
Nc1ncnc2c1c(-c1ccc(NC(=O)C3(C(=O)Nc4ccc(F)cc4)CC3)cc1)cn2C1CC(CN2CCCC2)C1 (stereo not drawn) [Example 343] | 500 to 5000 | 500 to 5000 | – | –
NCCCCn1cc(-c2cccc(OCc3ccccc3)c2)c2c(N)ncnc21 [Example 344] | 500 to 5000 | > 5000 | – | –
CC(=O)NCC=CCn1cc(-c2cccc(OCc3ccccc3)c2)c2c(N)ncnc21 [Example 345] | – | – | 500 to 5000 | > 5000
CC(=O)NCC1CC(n2cc(-c3cccc(OCc4ccccc4)c3)c3c(NC(C)=O)ncnc32)C1 (stereo not drawn) [Example 346] | 500 to 5000 | > 5000 | – | –
Nc1ncnc2c1c(-c1ccc(NC(=O)C3(C(=O)Nc4ccc(F)cc4)CC3)cc1)cn2CC1CC2CNCC2C1 (stereo not drawn) [Example 347] | > 5000 | > 5000 | – | –
Nc1ncnc2c1c(-c1cccc(OCc3ccccc3)c1)cn2C1CNC1 [Example 348] | 500 to 5000 | > 5000 | – | –
CC(=O)N1CCC(n2cc(-c3cccc(OCc4ccccc4)c3)c3c(N)ncnc32)CC1 [Example 349] | > 5000 | > 5000 | – | –
Nc1ncnc2c1c(-c1cccc(OCc3ccccc3)c1)cn2C1CCCCC1 [Example 350] | 500 to 5000 | > 5000 | – | –
Nc1ncnc2c1c(-c1cccc(Oc3ccccc3)c1)cn2C1CCCC1 [Example 354] | > 5000 | > 5000 | – | –
CC(=O)NCC#CCn1cc(-c2cccc(OCc3ccccc3)c2)c2c(N)ncnc21 [Example 355] | > 5000 | > 5000 | – | –
Nc1ncnc2c1c(-c1cccc(OCc3ccccc3)c1)cn2CC1CC2CN(C(=O)OCc3ccccc3)CC2C1 (stereo not drawn) [Example 356] | > 5000 | > 5000 | – | –
Nc1ncnc2c1c(-c1ccc(NC(=O)C3(C(=O)Nc4ccc(F)cc4)CC3)cc1)cn2CC1CC2CN(C(=O)OCc3ccccc3)CC2C1 (stereo not drawn) [Example 357] | > 5000 | > 5000 | – | –
Nc1ncnc2c1c(-c1cccc(OCc3ccccc3)c1)cn2CC1CC2CNCC2C1 (stereo not drawn) [Example 358] | > 5000 | > 5000 | – | –
CCN(CC)CCCNc1cc(Nc2cc(C(C)C)[nH]n2)nc(NCc2cc(-c3ccccc3)no2)n1 [Example 495] | < 50 | 50 to 500 | – | –
CC(C)c1cc(Nc2cc(N3CCOCC3)nc(NCc3cc(-c4ccccc4)no3)n2)n[nH]1 [Example 496] | < 50 | 50 to 500 | – | –
CC(C)c1cc(Nc2cc(N3CCN(C)CC3)nc(NCc3cc(-c4ccccc4)no3)n2)n[nH]1 [Example 497] | < 50 | 50 to 500 | – | –
Cc1cc(Nc2cc(C3CC3)[nH]n2)nc(NCc2cc(-c3ccccn3)no2)n1 [Example 498] | 50 to 500 | 50 to 500 | – | –
c1ccc(-c2cc(CNc3nc(Nc4cc(C5CC5)[nH]n4)cc(N4CCNCC4)n3)on2)cc1 [Example 499] | < 50 | 50 to 500 | – | –

Compound | IC50 (IGF 3P) [nM] | IC50 [1] [nM] | IC50 (IGF 3P; IGF 3P) [nM] | IC50 ([1]; IGF 0P) [nM]
Cc1cc(Nc2cc(C3CC3)[nH]n2)nc(NCc2cc(-c3ccc(F)cc3)no2)n1 [Example 500] | < 50 | 50 to 500 | – | –
c1ccc(-c2cc(CNc3nc(Nc4cc(C5CC5)[nH]n4)cc(OCCN4CCOCC4)n3)on2)cc1 [Example 501] | < 50 | 50 to 500 | – | –
CN1CCN(CCNc2cc(Nc3cc(C4CC4)[nH]n3)nc(NCc3cc(-c4ccccc4)no3)n2)CC1 [Example 509] | < 50 | 50 to 500 | – | –
O=C(c1cc(Nc2cc(C3CC3)[nH]n2)nc(NCc2cc(-c3ccccc3)no2)n1)N1CCOCC1 [Example 512] | 50 to 500 | 50 to 500 | – | –
c1ccc(-c2cc(CNc3nc(NCCN4CCOCC4)cc(Nc4cc(C5CC5)[nH]n4)n3)on2)cc1 [Example 513] | < 50 | 50 to 500 | – | –
c1ccc(-c2cc(CNc3nc(Nc4cc(C5CC5)n[nH]4)cc(OCCN4CCCC4)n3)on2)cc1 [Example 514] | – | – | < 50 | 50 to 500
CN1CCC(Oc2cc(Nc3cc(C4CC4)[nH]n3)nc(NCc3cc(-c4ccccc4)no3)n2)C1 (stereo not drawn) [Example 515] | < 50 | 50 to 500 | – | –
c1ccc(-c2cc(CNc3nc(NCCN4CCCCC4)cc(Nc4cc(C5CC5)[nH]n4)n3)on2)cc1 [Example 516] | < 50 | 50 to 500 | – | –
CC(C)c1cc(Nc2cc(OCCN(C)C)nc(NCc3cc(-c4ccccc4)no3)n2)n[nH]1 [Example 518] | < 50 | 50 to 500 | – | –
O=C(NCCN1CCCC1)c1cc(Nc2cc(C3CC3)[nH]n2)nc(NCc2cc(-c3ccccc3)no2)n1 [Example 521] | < 50 | 50 to 500 | – | –
CN1CCN(C(=O)c2cc(Nc3cc(C4CC4)[nH]n3)nc(NCc3cc(-c4ccccc4)no3)n2)CC1 [Example 522] | < 50 | 50 to 500 | – | –
Cc1cc(Nc2cc(C3CC3)[nH]n2)nc(NCc2cc(-c3ccccc3Br)no2)n1 [Example 525] | 50 to 500 | 50 to 500 | – | –
Cc1cc(Nc2cc(C(C)C)[nH]n2)nc(NCc2cc(C(C)C)no2)n1 [Example 526] | < 50 | 500 to 5000 | – | –
CN1CCN(CCNC(=O)c2cc(Nc3cc(C4CC4)[nH]n3)nc(NCc3cc(-c4ccccc4)no3)n2)CC1 [Example 527] | 50 to 500 | 50 to 500 | – | –
Cc1cc(Nc2cc(C)nc(NCc3cc(-c4ccccc4)no3)n2)[nH]n1 [Example 528] | 50 to 500 | 50 to 500 | – | –
CCN(CC)CCCNC(=O)c1cc(Nc2cc(C3CC3)[nH]n2)nc(NCc2cc(-c3ccccc3)no2)n1 [Example 529] | 50 to 500 | 50 to 500 | – | –
CCN(CC)CCNC(=O)c1cc(Nc2cc(C3CC3)[nH]n2)nc(NCc2cc(-c3ccccc3)no2)n1 [Example 530] | < 50 | 50 to 500 | – | –
O=C(NCCN1CCCCC1)c1cc(Nc2cc(C3CC3)[nH]n2)nc(NCc2cc(-c3ccccc3)no2)n1 [Example 531] | < 50 | 50 to 500 | – | –
O=C(NCCN1CCOCC1)c1cc(Nc2cc(C3CC3)[nH]n2)nc(NCc2cc(-c3ccccc3)no2)n1 [Example 533] | 50 to 500 | 50 to 500 | – | –
Brc1cnc(Nc2ccc(N3CCOCC3)cc2)nc1Nc1ccc2c(c1)CNCC2 [Example 534] | < 50 | 500 to 5000 | – | –

The next lines start with the values.

IC50 (IGF 3P) [nM] | IC50 [1] [nM] | IC50 (IGF 3P; IGF 3P) [nM] | IC50 ([1]; IGF 0P) [nM] | Compound
50 to 500 | 50 to 500 | – | – | Cc1cc(Nc2cc(C(C)C)[nH]n2)nc(NCc2cc(-c3cccc(Cl)c3)no2)n1 [Example 535]
500 to 5000 | 500 to 5000 | – | – | Cc1cc(Nc2cc(C3CC3)[nH]n2)nc(NCc2cnc[nH]2)n1 [Example 536]
500 to 5000 | 500 to 5000 | – | – | COC(=O)C1CCc2cc(Nc3nc(C)cc(Nc4cc(C5CC5)n[nH]4)n3)ccc2N1 (stereo not drawn) [Example 537]
50 to 500 | 50 to 500 | – | – | Cc1cc(Nc2cc(C3CC3)[nH]n2)nc(NCc2cc(-c3cccc(Cl)c3)no2)n1 [Example 538]
500 to 5000 | 500 to 5000 | – | – | CNCCc1ccc(Nc2nc(C)cc(Nc3cc(C4CC4)n[nH]3)n2)cc1 [Example 540]
< 50 | 50 to 500 | – | – | CCN(CC)CCNC(=O)CCc1ccc(Nc2ncc(Br)c(Nc3ccccc3)n2)cc1 [Example 541]
50 to 500 | 50 to 500 | – | – | Cc1cc(Nc2cc(C3CC3)[nH]n2)nc(NCc2cc(-c3cccc(Br)c3)no2)n1 [Example 542]
< 50 | 500 to 5000 | – | – | CC(C)c1cc(CNc2nc(Cl)cc(Nc3cc(C(C)C)[nH]n3)n2)on1 [Example 544]
50 to 500 | 500 to 5000 | – | – | Cc1cc(Nc2cc(C3CC3)n[nH]2)nc(Nc2ccc3c(c2)CNCC3)n1 [Example 545]
50 to 500 | 500 to 5000 | – | – | Cc1cc(Nc2cc(C3CC3)n[nH]2)nc(Nc2ccc3c(c2)CC(N)C3)n1 (stereo not drawn) [Example 546]
50 to 500 | 500 to 5000 | – | – | Cc1cc(Nc2cc(C3CC3)n[nH]2)nc(Nc2ccc(CCN)cc2)n1 [Example 550]
50 to 500 | 500 to 5000 | – | – | Cc1cc(Nc2cc(C3CC3)n[nH]2)nc(Nc2ccc(CCN3CCCC3)cc2)n1 [Example 551]
500 to 5000 | 500 to 5000 | – | – | Cc1cc(Nc2cc(C3CC3)n[nH]2)nc(Nc2ccc(C3CCNCC3)cc2)n1 [Example 553]
500 to 5000 | 500 to 5000 | – | – | Cc1cc(Nc2cc(C3CC3)n[nH]2)nc(Nc2ccc(CCN3CCCCC3)cc2)n1 [Example 554]
500 to 5000 | 500 to 5000 | – | – | Cc1cc(Nc2cc(C3CC3)[nH]n2)nc(NCc2cc(C(=O)N3CCN(C)CC3)no2)n1 [Example 555]
500 to 5000 | 500 to 5000 | – | – | Cc1cc(Nc2cc(C3CC3)n[nH]2)nc(Nc2ccc(CCN3CCOCC3)cc2)n1 [Example 556]
– | – | < 50 | 50 to 500 | CC(C)c1cc(CNc2nc(Nc3cc(C4CC4)[nH]n3)cc(N3CCN[C@H](C)C3)n2)on1 [Example 557]
< 50 | 50 to 500 | – | – | CC(C)c1cc(CNc2nc(NCCN3CCN(C)CC3)cc(Nc3cc(C(C)C)[nH]n3)n2)on1 [Example 558]
< 50 | 500 to 5000 | – | – | CC(C)c1cc(CNc2nc(NCCN3CCN(C)CC3)cc(Nc3cc(C4CC4)[nH]n3)n2)on1 [Example 559]
50 to 500 | 50 to 500 | – | – | c1ccc(-c2cc(CNc3nc(CN4CCOCC4)cc(Nc4cc(C5CC5)[nH]n4)n3)on2)cc1 [Example 561]
500 to 5000 | 500 to 5000 | – | – | Cc1cc(Nc2cc(C3CC3)[nH]n2)nc(NCc2ccc(-c3ccc(Cl)cc3)s2)n1 [Example 562]
500 to 5000 | 500 to 5000 | – | – | Cc1cc(Nc2cc(C3CC3)[nH]n2)nc(NCc2ccco2)n1 [Example 563]
500 to 5000 | 500 to 5000 | – | – | Cc1cc(Nc2cc(C3CC3)n[nH]2)nc(Nc2ccc3c(c2)CN(C(=O)OC(C)(C)C)CC3)n1 [Example 565]
